Consider three compounds from patent US20100261711A1, “SELECTIVE ANTICONVULSANT AGENTS AND THEIR USES” (WiSys Technology Foundation, priority 2009, published 2010).

The nature of data set [1]: Plasma levels by LC-MS/MS (tolerance study). It is filed as in vivo, Sprague Dawley rats. The protocol:
Immediately after testing, blood was collected via cardiac puncture. Samples were spun down, plasma was collected and acetonitrile added. Samples were frozen at −80° C. and shipped to a commercial laboratory (Enthalpy) for analysis.
Group 3 (8 subjects) was dosed with vehicle only.

In data set [2] the target is T1, GABAA/α1 (α1β3γ2 GABAA receptors) (Homo sapiens, UniProt P14867+P18507).
T1 construct: expressed in transfected cells
Description: Competitive binding assay, [3H]flunitrazepam. Conditions: Binding Affinity at GABAA/α1, αxβ3γ2, [3H]flunitrazepam competition. As to the method: (§1) The GABAA subunit selectivity of several compounds prepared as described above were determined using competitive binding assays. […] Membranes were harvested with a Brandel cell harvester followed by three ice-cold washes onto polyethyleneimine-pretreated (0.3%) Whatman GF/C filters. Filters were dried overnight and then soaked in Ecoscint, a liquid scintillation cocktail (National Diagnostics; Atlanta, Ga.). Bound radioactivity was quantified by liquid scintillation counting. Membrane protein concentrations were determined using an assay kit from Bio-Rad (Hercules, Calif.) with bovine serum albumin as the standard.

The target in data set [3] is T2, GABAA/α2 (α2β3γ2 GABAA receptors) (Homo sapiens, UniProt P18507+P47869).
T2 construct: expressed in transfected cells
The experiment in a line: Competitive binding assay, [3H]flunitrazepam. The following applies: Binding Affinity at GABAA/α2, αxβ3γ2, [3H]flunitrazepam competition. The protocol:
as §1

Data set [4] deals with T3, GABAA/α3 (α3β3γ2 GABAA receptors) (Homo sapiens, UniProt P18507+P34903).
T3 construct: expressed in transfected cells
Description: Competitive binding assay, [3H]flunitrazepam. As to the method:
as §1

In data set [5] the target is T4, GABAA/α5 (α5β3γ2 GABAA receptors) (Homo sapiens, UniProt P18507+P31644).
T4 construct: expressed in transfected cells
Description: Competitive binding assay, [3H]flunitrazepam. The protocol:
as §1

For data set [6], the target named is T5, GABAA/α6 (α6β3γ2 GABAA receptors) (Homo sapiens, UniProt P18507+Q16445).
T5 construct: expressed in transfected cells
Description: Competitive binding assay, [3H]flunitrazepam. The following applies: αxβ3γ2, [3H]flunitrazepam competition; read-out: Binding Affinity at GABAA/α6. The protocol: as §1

Molecules are shown by their SMILES. Where “and” joins values, the source holds several entries; their conditions need not be identical. Identical values can stand only once. Like-named read-outs stand apart in the source and are kept apart here.

Take `C#Cc1ccc2c(c1)C(c1ccccn1)=NCc1c(C(=O)O)ncn1-2` [HZ-166 acid]: the “HZ-166 acid, plasma average with outliers excluded” value in data set [1] (Group 1 (five days dosing of HZ-166)) stood at 9.03 nmol/mL; in data set [1] (Group 2 (HZ-166 on day 5 only)) it was 8.72 nmol/mL. In addition, the “Conc HZ-166 acid in plasma, individual subjects” value in data set [1] (Group 1: HZ-166 35.5 mg/kg ip for five days, blood after test on day 5) is 2910 ng/mL and 2570 ng/mL and 3430 ng/mL and 2830 ng/mL and BLQ < (1.00) ng/mL and 3780 ng/mL and 3310 ng/mL and 1900 ng/mL; in data set [1] (Group 2: HZ-166 35.5 mg/kg ip on day 5 only), 3270 ng/mL and 2180 ng/mL and 167 ng/mL and 3120 ng/mL and 3100 ng/mL and 3690 ng/mL and 2590 ng/mL and 2080 ng/mL.

In the case of `C#Cc1ccc2c(c1)C(c1ccccc1)=NCc1c(C(=O)OCC(F)(F)F)ncn1-2` [DM-II-20, Trifluoroethyl 8-acetylenyl-6-phenyl-4H-benzo[f]imidazo[1,5-a][1,4]diaze-pine-3-carboxylate], the melting point was 188 to 190 °C. The same compound came in with a Ki in data set [2] of 5720 nM. The same compound showed a Ki in data set [3] of 177 nM. This compound showed a Ki in data set [4] (Binding Affinity at GABAA/α3, αxβ3γ2, [3H]flunitrazepam competition) of 35.7 nM. Also, the Ki in data set [5] (Binding Affinity at GABAA/α5, αxβ3γ2, [3H]flunitrazepam competition) amounted to 198 nM.

On to `C[Si](C)(C)C#Cc1ccc2c(c1)C(c1ccccc1F)=NCc1c(C(=O)OCC(F)(F)F)ncn1-2` [JYI-53, Trifluoroethyl-8-trimethylsilylacetylenyl-6-(2′-fluorophenyl)-4H-benzo[f]imidazo[1,5-a][1,4]diazepine-3-carboxylate], for which the Ki in data set [2] came out at 77.4 nM; in data set [3] it was 40.4 nM; in data set [4] (αxβ3γ2, [3H]flunitrazepam competition, read-out: Binding Affinity at GABAA/α3) it was 183 nM; in data set [5] (αxβ3γ2, [3H]flunitrazepam competition, read-out: Binding Affinity at GABAA/α5) it was 133 nM; in data set [6] it was 3650 nM.

One may read the melting point as the temperature, or range, at which the solid turns liquid.
